Numbering of substitutions follows the chain as printed.
Tests used:
Type in all cases: biochemical
[1] = biological target: T1, Zea mays EPSPS variant Zm-H6 (868-H6) with A36G (H6-A36G) (Zea mays, UniProt O24566, A1R/A35G/A3W/A415G/A71Q/D401G/E301S/E390G/G101A/I207L/K83R/L97C/T278A/T360S/T440Q/V437R); test: Substrate saturation kinetic analysis with glyphosate, H6-A36G
T1 sequence (O24566 with tags, fused parts or gaps A1R/A3W/A35G/A71Q/K83R/L97C/G101A/I207L/T278A/E301S/T360S/E390G/D401G/A415G/V437R/T440Q): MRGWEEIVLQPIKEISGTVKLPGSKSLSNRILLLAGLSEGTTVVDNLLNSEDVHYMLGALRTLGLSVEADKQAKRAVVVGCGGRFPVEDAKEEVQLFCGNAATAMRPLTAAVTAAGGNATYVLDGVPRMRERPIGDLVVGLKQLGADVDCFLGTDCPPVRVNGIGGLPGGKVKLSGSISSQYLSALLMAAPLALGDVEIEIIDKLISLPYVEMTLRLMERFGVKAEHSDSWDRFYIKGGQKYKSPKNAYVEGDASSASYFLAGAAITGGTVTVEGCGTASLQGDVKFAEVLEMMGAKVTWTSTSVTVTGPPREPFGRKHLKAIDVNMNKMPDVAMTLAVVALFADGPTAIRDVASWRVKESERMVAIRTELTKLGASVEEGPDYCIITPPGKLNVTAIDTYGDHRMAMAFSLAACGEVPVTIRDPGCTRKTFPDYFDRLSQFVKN

[2] = biological target: T2, Zea mays EPSPS variant Zm-P107S (Zea mays, UniProt O24566, P106S); test: Substrate saturation kinetic analysis with glyphosate, Zm-P107S
T2 construct: native maize plus P107S; E. coli BL21(DE3), Ni-NTA purified
T2 sequence (O24566 with tags, fused parts or gaps P106S): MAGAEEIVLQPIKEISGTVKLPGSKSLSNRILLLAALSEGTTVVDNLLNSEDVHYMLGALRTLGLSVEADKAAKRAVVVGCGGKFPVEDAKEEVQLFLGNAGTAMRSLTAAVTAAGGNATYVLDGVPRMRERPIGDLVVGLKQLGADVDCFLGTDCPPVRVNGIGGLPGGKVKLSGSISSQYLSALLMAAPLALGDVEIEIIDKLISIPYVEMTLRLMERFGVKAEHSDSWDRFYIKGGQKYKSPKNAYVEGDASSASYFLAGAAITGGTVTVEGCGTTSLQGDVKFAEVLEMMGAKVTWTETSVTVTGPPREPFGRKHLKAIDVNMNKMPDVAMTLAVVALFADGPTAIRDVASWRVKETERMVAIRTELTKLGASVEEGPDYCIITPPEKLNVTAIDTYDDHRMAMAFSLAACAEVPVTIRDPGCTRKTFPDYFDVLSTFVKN

[3] = biological target: Sorghum halepense EPSPS, native, SEQ ID NO:8 (Sorghum halepense, UniProt H6T5X2); test: EPSPS substrate saturation kinetics, native sorghum
Chain of Sorghum halepense EPSPS, native, SEQ ID NO:8 (H6T5X2 entry or part of it): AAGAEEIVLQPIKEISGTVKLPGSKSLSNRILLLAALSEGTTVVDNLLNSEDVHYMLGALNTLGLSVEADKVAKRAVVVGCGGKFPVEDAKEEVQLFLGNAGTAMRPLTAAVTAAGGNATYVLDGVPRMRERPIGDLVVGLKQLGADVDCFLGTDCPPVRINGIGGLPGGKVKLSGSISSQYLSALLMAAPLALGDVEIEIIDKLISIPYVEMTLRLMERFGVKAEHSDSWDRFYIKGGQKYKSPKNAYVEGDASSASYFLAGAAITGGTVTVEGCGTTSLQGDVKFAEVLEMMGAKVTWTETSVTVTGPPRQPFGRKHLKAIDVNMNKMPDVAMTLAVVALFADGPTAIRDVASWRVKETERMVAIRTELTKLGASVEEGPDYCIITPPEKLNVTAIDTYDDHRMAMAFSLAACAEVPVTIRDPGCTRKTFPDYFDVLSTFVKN
Method: EPSPS activity was determined by quantifying the phosphate generated from the EPSPS reaction. Release of inorganic phosphate was coupled to reaction with 2-amino-6-mercapto-7-methylpurine ribonucleoside, catalyzed by purine-nucleoside phosphorylase (M R Webb, Proc. Natl. Acad. Sci. 89:4884-4887, 1992). The absorbance change that occurs was monitored at 360 nm, where the extinction is 11,200 M^−1 cm^−1, with a Spectramax plate reader (Molecular Devices). To determine kinetic parameters, the varied substrate was present at seven concentrations (the eighth being the blank, containing no substrate) ranging from 4 to 400 uM and the unvaried substrate present at saturation. […] Reactions were monitored with a Spectramax plate reader. […] KI was then calculated from the following form of the Michaelis-Menten equation for competitive inhibition: KI=KM[I]/(KM app−KM) KM approximates the dissociation constant of the enzyme-substrate complex while kcat is the rate of conversion of substrate to product when the substrate concentration is saturating. kcat/KM is a widely accepted parameter for catalytic efficiency when substrate concentration is low (˜KM). […] The parameter kcat/KM×KI is used to quantify both catalytic efficiency and insensitivity and thus the overall fitness of the enzyme. […]

[4] = biological target: T3, Zea mays EPSPS variant Zm-H6 (868-H6) with A69V (H6-A69V) (Zea mays, UniProt O24566, A1R/A3W/A415G/A68V/A71Q/D401G/E301S/E390G/G101A/I207L/K83R/L97C/T278A/T360S/T440Q/V437R); test: Substrate saturation kinetic analysis with glyphosate, H6-A69V
T3 sequence (O24566 with tags, fused parts or gaps A1R/A3W/A68V/A71Q/K83R/L97C/G101A/I207L/T278A/E301S/T360S/E390G/D401G/A415G/V437R/T440Q): T1 sequence (O24566 with tags, fused parts or gaps A1R/A3W/A35G/A71Q/K83R/L97C/G101A/I207L/T278A/E301S/T360S/E390G/D401G/A415G/V437R/T440Q) with G36A, A69V

Compound: O=C(O)CNCP(=O)(O)O [glyphosate, N-phosphonomethylglycine]
- Ki [1]: 454 µM
- (kcat/KM)*KI ([1]; substrate saturation, H6-A36G): 3630
- Ki [2]: 0.42 µM
- (kcat/KM)*KI ([2]; substrate saturation, Zm-P107S): 51
- Ki [3]: 0.2 µM
- (kcat/KM)*KI ([3]; PEP as substrate, glyphosate as inhibitor): 33
- Ki [4]: 320 µM
- (kcat/KM)*KI ([4]; substrate saturation, H6-A69V): 2440

Reference: patent publication US11549123B2, “Plant EPSP synthases and methods of use” (PIONEER HI-BRED INTERNATIONAL, INC., priority 2015, dated 2023)
